{"source": "patent US10808017B2", "about": "“Ubiquitin variants and uses therof as 53BP1 inhibitors” (The Governing Council of the University of Toronto, priority 2016, dated 2020)", "key": {"[1]": {"system": "gene targeting at the LMNA locus in U2OS cells", "test": "LMNA mClover gene targeting assay (CRISPR/Cas9)", "type": "cell-based", "details": "parental U2OS cells; NU7441 at 10 μM", "procedure": "(§1) FIG. 4. Activation of HR by i53. FIG. 4A, Schematic of the DR-GFP assay. FIG. 4B. U2OS DR-GFP cells were transfected with the vectors expressing i53, the DM mutant or an empty vector control (EV) along with an I-Scel expression vector. The percentage of GFP-positive cells was determined 48 h post-transfection for each condition and was normalized to the empty vector condition (mean±s.d., N=4). FIG. 4C, U2OS DR-GFP were first transfected with siRNAs targeting the 53BP1 or BRCA1 mRNAs along with a non-targeting siRNA (CTRL). 24 h post-transfection, cells were transfected with the I-SceI expression vector and the percentage of GFP-positive cells was determined 48 h post-siRNA transfection for each condition. The values were normalized to the empty vector condition and presented as the mean±s.e.m; N=4. FIG. 4D, Schematic of the gene targeting assay. FIG. 4E, Gene targeting efficiency at the LMNA locus in parental or 53BP1Δ U2OS cells following transfection with vectors expressing Flag-tagged i53 or its DM mutant or an empty vector control (EV). The DNA-PK inhibitor NU7441 was also added where indicated. 24 h post-transfection, cells were analysed for mClover fluorescence. Individual experiments are presented with the error bar representing the s.d., (N=3). FIG. 4F, Gene targeting at the LMNA locus in G 1-arrested parental (WT) or 53BP1Δ U2OS cells transfected with vectors expressing Flag-tagged i53 or its DM mutant or an empty vector control (EV). The DNA-PK inhibitor NU7441 was also added in the indicated conditions. 24 h post-transfection, cells were analysed for mClover fluorescence. Individual experiments are present with the error bar representing the s.d., (N=3).\nThe Lamin A (LMNA) assay to measure the frequency of introduction of the coding sequence for mClover at the 5′ end of LMNA using the CRISPR/Cas9 was performed as previously described4. Parental or 53BP1Δ U2OS cell lines were transfected with the indicated plasmids using Lipofectamine RNAiMAX (Invitrogen). 24 h later, the cells were electroporated with 2.5 μg of sgRNA plasmids and 2.5 μg of donor template using a Nucleofector (Lonza; protocol X-001). Parental or 53BP1Δ U2OS cells stably expressing CtIP-T847E mutant were transfected with an siRNA against KEAP1 and the indicated plasmids and processed as previously described."}, "[2]": {"system": "gene targeting at the LMNA locus in U2OS cells", "details": "reference [21]; cited from earlier work"}, "[3]": {"system": "gene conversion (HR) in U2OS DR-GFP cells", "test": "Direct-repeat (DR)-GFP gene conversion assay", "type": "cell-based, human", "details": "SCR7 at 1 μM; i53 by plasmid expression", "procedure": "as §1\nThe direct repeat (DR)-GFP assay to measure the frequency of HR and the strand annealing EJ2-GFP assay to measure the frequency of MMEJ were performed as previously described. Briefly, U2OS DR-GFP or U2OS EJ2-GFP cells were transfected with 10 nM siRNA (Dharmacon) using Lipofectamine RNAiMAX (Invitrogen). 24 h later, the cells were transfected with the pCBASceI plasmid (Addgene #26477) and plasmids, using Lipofectamine 2000 (Invitrogen). 48 h post-plasmid transfection, the cells were trypsinized and the percentage of GFP-expressing cells was analyzed using the BD FACSCalibur flow cytometer.\nAAV-293 cells (Agilent) were transfected with pAAV expression, pDJ and pHelper constructs (Cell Biolabs, Inc., USA) in equal amounts using PEI to produce AAV-DJ expression viruses. 48-72 h later, the viral supernatant was used to transduce target cells for 24 h, and assays were initiated a further 24 h later."}}}
{"smiles": "O=c1cc(N2CCOCC2)oc2c(-c3cccc4c3sc3ccccc34)cccc12", "note": "[NU7441, 8-dibenzothiophen-4-yl-2-morpholin-4-yl-chromen-4-one, reference compound]", "values": [{"measurement": "Change of gene targeting at the LMNA locus (in words)", "setting": "[1]", "value": "modest increase in gene targeting"}]}
{"smiles": "O=c1[nH]c(=S)[nH]c(N=Cc2ccccc2)c1N=Cc1ccccc1", "note": "[SCR7, reference compound]", "values": [{"measurement": "Response of gene targeting at the LMNA locus to treatment", "setting": "[2]", "value": "not responsive"}, {"measurement": "Gene conversion in DR-GFP assay (comparison in words)", "setting": "[3]", "value": "minimal impact"}]}
{"smiles": "c1cnccn1", "note": "[SCR7 pyrazine, reference compound]", "values": [{"measurement": "Gene conversion in DR-GFP assay (comparison in words)", "setting": "[3]", "value": "minimal impact"}]}
